# Test results as given in patent US20230000870A1, “METHODS OF TREATING CANCER IN BIOMARKER-IDENTIFIED PATIENTS WITH INHIBITORS OF CYCLIN-DEPENDENT KINASE 7 (CDK7)” (Syros Pharmaceuticals, Inc., priority 2019, published 2023).
# Tests used:
# [1] = target: CDK9/Cyclin T1 complex (Homo sapiens, UniProt P50750); assay: CDK9 kinase inhibition assay (Caliper/LabChip EZ Reader); assay type: biochemical; conditions: CDK9/Cyclin T1 8 nM, ATP 2 mM, 15 min at 27° C.
# Summary of the method: (§1)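 Caliper/LabChip mobility-shift kinase assays at 27° C. CDK9/Cyclin T1 8 nM with 2 μM 5-FAM-CDK9tide, 10 mM MgCl2, 15 min; CDK12/Cyclin K 50 nM with 5-FAM-CDK9tide 2 μM, 2 mM MgCl2, 3 hr; CDK2/Cyclin E1 0.5 nM with 5-FAM-CDK7tide 2 μM, 2 mM MgCl2, 35 min; CDK7 35 min.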
# [2] = target: CDK2/Cyclin E1 complex (Homo sapiens, UniProt P24941); assay: CDK2 kinase inhibition assay (Caliper/LabChip EZ Reader); assay type: biochemical; conditions: CDK2/Cyclin E1 0.5 nM, ATP 2 mM, 35 min at 27° C.
# Summary of the method: as §1
# [3] = target: T1, CDK12 (aa686-1082)/Cyclin K complex (Homo sapiens, UniProt Q9NYV4); assay: CDK12 kinase inhibition assay (Caliper/LabChip EZ Reader); assay type: biochemical; conditions: CDK12 (aa686-1082)/Cyclin K 50 nM, ATP 2 mM, 3 hr at 27° C.
# T1 construct: CDK12 (aa686-1082)/Cyclin K complex
# Summary of the method: as §1
# [4] = target: CDK7/Cyclin H/MAT1 complex (Homo sapiens, UniProt P50613); assay: CDK7 kinase inhibition assay (Caliper/LabChip EZ Reader); assay type: biochemical; conditions: CDK7/Cyclin H/MAT1 6 nM, ATP 2 mM, 35 min at 27° C.
# Summary of the method: as §1
# [5] = test system: HCC70 cells; assay: Inhibition of proliferation of HCC70 cells (CyQUANT Direct, 72 hour); assay type: cell-based, human; conditions: read-out: Inhibition of Proliferation of HCC70 Cells (calculated IC50)
# Experimental: HCC70 cells: HCC70 cells are a cell line derived from human triple negative breast cancer. Representative compounds of the invention were tested at different concentrations (from 4 μM to […]; 0.5 log serial dilutions) for their ability to inhibit the proliferation of HCC70 cells. Known CDK inhibitors dinaciclib or N-((1S,3R)-3-((5-chloro-4-(1H-indol-3-yl) pyrimidin-2-yl)amino)cyclohexyl)-5-((E)-4-(dimethylamino)but-2-enamido)picolinamide and triptolide were used as positive controls. Cells were grown in ATCC-formulated RPMI-1640 Medium (ATCC 30-2001)+10% FBS. The cells were cultured at 37° C. in a humidified chamber in the presence of 5% CO2. Proliferation assays were conducted over a 72 hour time period. CyQUANT® Direct Cell Proliferation Assay (Life Technologies, Chicago, Ill. USA) was used to assess the anti-proliferative effects of the compounds following manufacturer's directions and utilizing the reagents supplied with the CyQUANT® Direct Cell kit.
# T1 sequence (Q9NYV4 686-1082): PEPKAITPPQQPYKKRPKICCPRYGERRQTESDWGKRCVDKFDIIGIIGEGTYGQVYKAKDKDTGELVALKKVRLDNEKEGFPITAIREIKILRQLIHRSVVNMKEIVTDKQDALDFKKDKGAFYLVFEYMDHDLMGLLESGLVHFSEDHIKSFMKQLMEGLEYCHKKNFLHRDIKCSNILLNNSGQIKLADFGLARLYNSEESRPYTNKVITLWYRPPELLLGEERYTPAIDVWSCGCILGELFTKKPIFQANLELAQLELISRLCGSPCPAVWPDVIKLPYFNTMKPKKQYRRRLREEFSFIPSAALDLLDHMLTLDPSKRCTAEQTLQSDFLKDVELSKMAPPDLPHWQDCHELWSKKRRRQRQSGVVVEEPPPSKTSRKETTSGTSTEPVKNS
# T1 sequence (O75909 whole entry partner, the tested form may be a part): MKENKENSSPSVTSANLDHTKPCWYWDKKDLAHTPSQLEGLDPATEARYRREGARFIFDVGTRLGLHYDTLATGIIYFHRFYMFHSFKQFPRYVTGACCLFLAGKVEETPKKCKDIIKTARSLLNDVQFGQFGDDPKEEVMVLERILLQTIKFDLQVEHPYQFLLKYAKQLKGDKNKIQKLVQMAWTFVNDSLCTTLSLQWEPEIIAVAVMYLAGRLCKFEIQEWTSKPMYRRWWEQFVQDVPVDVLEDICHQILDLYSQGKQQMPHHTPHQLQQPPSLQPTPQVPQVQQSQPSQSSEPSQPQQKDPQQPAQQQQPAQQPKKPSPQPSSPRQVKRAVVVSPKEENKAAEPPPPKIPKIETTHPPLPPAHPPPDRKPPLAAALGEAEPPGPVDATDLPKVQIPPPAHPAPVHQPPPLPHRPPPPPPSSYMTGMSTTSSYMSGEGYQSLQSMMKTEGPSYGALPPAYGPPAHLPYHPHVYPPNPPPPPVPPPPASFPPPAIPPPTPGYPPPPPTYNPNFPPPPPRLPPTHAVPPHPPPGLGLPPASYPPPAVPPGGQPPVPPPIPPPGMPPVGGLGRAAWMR
# Chain of CDK7/Cyclin H/MAT1 complex (P50613 whole entry): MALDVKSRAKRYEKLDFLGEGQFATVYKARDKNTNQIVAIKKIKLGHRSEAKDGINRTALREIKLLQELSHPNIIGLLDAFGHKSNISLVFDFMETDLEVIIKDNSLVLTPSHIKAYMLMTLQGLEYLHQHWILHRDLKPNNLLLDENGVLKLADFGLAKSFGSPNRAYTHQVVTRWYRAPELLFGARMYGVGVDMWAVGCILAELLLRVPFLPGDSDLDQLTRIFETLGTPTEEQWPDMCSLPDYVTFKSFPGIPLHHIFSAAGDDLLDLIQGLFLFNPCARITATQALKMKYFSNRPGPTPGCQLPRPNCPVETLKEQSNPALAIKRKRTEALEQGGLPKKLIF
# Chain of CDK7/Cyclin H/MAT1 complex (P51946 whole entry partner): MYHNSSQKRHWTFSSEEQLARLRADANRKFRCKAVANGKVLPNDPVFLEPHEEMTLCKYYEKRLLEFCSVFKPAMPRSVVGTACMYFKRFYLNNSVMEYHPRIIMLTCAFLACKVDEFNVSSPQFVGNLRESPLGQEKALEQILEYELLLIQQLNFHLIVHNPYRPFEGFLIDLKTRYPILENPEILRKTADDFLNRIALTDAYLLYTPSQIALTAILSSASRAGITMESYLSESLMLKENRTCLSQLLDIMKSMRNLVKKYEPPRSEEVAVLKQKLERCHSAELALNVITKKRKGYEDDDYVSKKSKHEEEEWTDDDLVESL
# Chain of CDK7/Cyclin H/MAT1 complex (P51948 whole entry partner): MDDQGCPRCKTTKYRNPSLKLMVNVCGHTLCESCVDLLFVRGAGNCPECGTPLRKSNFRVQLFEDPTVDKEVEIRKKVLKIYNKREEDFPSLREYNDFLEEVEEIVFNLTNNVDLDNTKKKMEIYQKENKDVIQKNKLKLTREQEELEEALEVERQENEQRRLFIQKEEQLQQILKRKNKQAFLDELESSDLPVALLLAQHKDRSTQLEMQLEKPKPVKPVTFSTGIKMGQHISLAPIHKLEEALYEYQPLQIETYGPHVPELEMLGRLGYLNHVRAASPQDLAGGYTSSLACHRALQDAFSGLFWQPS
# Chain of CDK9/Cyclin T1 complex (P50750 whole entry): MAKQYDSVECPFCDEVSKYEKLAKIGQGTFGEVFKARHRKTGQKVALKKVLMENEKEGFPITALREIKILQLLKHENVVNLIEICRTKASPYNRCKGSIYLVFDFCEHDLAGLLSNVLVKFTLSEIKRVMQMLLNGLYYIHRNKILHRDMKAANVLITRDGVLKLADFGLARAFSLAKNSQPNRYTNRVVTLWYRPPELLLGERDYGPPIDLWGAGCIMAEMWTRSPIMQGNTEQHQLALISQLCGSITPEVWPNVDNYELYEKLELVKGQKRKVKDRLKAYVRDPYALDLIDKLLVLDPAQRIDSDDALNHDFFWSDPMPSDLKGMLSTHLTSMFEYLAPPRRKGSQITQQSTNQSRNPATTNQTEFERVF
# Chain of CDK9/Cyclin T1 complex (O60563 whole entry partner): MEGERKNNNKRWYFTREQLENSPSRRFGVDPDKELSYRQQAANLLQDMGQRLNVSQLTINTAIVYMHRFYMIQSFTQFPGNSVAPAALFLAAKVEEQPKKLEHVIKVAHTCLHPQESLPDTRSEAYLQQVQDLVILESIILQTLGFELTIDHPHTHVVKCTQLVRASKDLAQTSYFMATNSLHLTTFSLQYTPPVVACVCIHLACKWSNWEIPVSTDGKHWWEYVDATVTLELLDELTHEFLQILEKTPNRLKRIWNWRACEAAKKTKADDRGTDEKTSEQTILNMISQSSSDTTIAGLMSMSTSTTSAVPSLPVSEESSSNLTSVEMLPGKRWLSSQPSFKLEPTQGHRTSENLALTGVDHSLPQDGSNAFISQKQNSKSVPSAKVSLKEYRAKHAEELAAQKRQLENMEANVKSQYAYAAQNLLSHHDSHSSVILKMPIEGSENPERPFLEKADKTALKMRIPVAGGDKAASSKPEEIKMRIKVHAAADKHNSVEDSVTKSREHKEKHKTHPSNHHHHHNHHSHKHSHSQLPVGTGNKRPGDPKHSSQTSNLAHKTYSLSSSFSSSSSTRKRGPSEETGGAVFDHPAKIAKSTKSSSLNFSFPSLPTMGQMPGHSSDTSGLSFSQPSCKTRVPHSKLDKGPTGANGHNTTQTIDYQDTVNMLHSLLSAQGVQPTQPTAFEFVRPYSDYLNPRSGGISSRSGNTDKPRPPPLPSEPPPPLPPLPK
Structure (SMILES),IC50 [1] [µM],IC50 [2] [µM],IC50 [3] [µM],IC50 [4] [µM],IC50 [5] [µM]
FC(F)(F)c1cnc(NC2CCCNC2)nc1-c1c[nH]c2cc(-c3ccc4[nH]cnc4c3)ccc12 (stereo not shown) [Compound 313],0.2 to 5,0.2 to 5,0.2 to 5,< 0.02,0.1 to 1
CCc1cnc(NC2CCCNC2)nc1-c1c[nH]c2c(S(C)(=O)=O)cccc12 (stereo not shown) [Compound 269],,,,,0.1 to 1
Cn1cc(-c2nc(NC3CCCNC3)ncc2C(F)(F)F)c2cccc(S(C)(=O)=O)c21 (stereo not shown) [Compound 296],≥ 5,≥ 5,≥ 5,0.02 to 0.2,1 to 5
FC(F)(F)Sc1cnc(NC2CCCNC2)nc1-c1c[nH]c2ccccc12 (stereo not shown) [Compound 305],0.2 to 5,0.2 to 5,0.2 to 5,< 0.02,1 to 5
N#CC1CCN(C(=O)c2ccc3c(-c4nc(NC5CCCNC5)ncc4C(F)(F)F)c[nH]c3c2)C1 (stereo not shown) [Compound 293],0.2 to 5,0.2 to 5,0.2 to 5,< 0.02,0.1 to 1
O=C1CCN(C(=O)c2ccc3c(-c4nc(NC5CCCNC5)ncc4C(F)(F)F)c[nH]c3c2)C1 (stereo not shown) [Compound 302],0.2 to 5,0.2 to 5,0.2 to 5,0.02 to 0.2,0.1 to 1
FC(F)(F)c1cc2[nH]cc(-c3ccc4c(-c5nc(N[C@H]6CCCNC6)ncc5C(F)(F)F)c[nH]c4c3)c2cn1 [Compound 319],,,0.2 to 5,0.02 to 0.2,1 to 5
CNC(=O)c1cccc2c(-c3nc(NC4CCCNC4)ncc3C(F)(F)F)cn(COC)c12 (stereo not shown) [Compound 304],≥ 5,≥ 5,≥ 5,≥ 5,1 to 5
N#Cc1cc(-c2ccc3c(-c4nc(NC5CCCNC5)ncc4C(F)(F)F)c[nH]c3c2)ccc1O (stereo not shown) [Compound 315],,,0.2 to 5,0.02 to 0.2,1 to 5
COCn1cc(-c2nc(NC3CCCNC3)ncc2C(F)(F)F)c2cccc(C#N)c21 (stereo not shown) [Compound 295],≥ 5,≥ 5,≥ 5,0.02 to 0.2,1 to 5
NC(=O)c1cccc(-c2ccc3c(-c4nc(NC5CCCNC5)ncc4C(F)(F)F)c[nH]c3c2)c1 (stereo not shown) [Compound 314],0.2 to 5,0.2 to 5,0.2 to 5,< 0.02,0.1 to 1
Oc1ncccc1-c1ccc2c(-c3nc(NC4CCCNC4)ncc3C(F)(F)F)c[nH]c2c1 (stereo not shown) [Compound 310],≥ 5,0.2 to 5,0.2 to 5,< 0.02,0.1 to 1
O=C(O)c1ccc2c(-c3nc(NC4CCCNC4)ncc3C(F)(F)F)c[nH]c2c1 (stereo not shown) [Compound 306],≥ 5,0.2 to 5,0.2 to 5,0.02 to 0.2,0.1 to 1
CNC(=O)c1cccc2c(-c3nc(NC4CCCNC4)ncc3C(F)(F)F)cn(C)c12 (stereo not shown) [Compound 307],≥ 5,≥ 5,≥ 5,≥ 5,1 to 5
FC(F)(F)c1cnc(N[C@H]2CCCNC2)nc1-c1c[nH]c2cc(/C=C/c3ccccc3)ccc12 [Compound 317],,,0.2 to 5,0.02 to 0.2,1 to 5
Fc1cncc(-c2ccc3c(-c4nc(NC5CCCNC5)ncc4C(F)(F)F)c[nH]c3c2)c1 (stereo not shown) [Compound 335],,,,,0.1 to 1
Cn1cc(-c2ccc3c(-c4nc(N[C@H]5CCCNC5)ncc4C(F)(F)F)c[nH]c3c2)c2cnc(C(F)(F)F)cc21 [Compound 320],,,0.2 to 5,0.02 to 0.2,1 to 5
Nc1nc2c(-c3ccc4c(-c5nc(NC6CCCNC6)ncc5C(F)(F)F)c[nH]c4c3)cccc2s1 (stereo not shown) [Compound 312],,,0.2 to 5,0.02 to 0.2,0.1 to 1

# Continued, in another order:
IC50 [1] [µM],IC50 [2] [µM],IC50 [3] [µM],IC50 [4] [µM],Structure (SMILES),IC50 [5] [µM]
0.2 to 5,0.2 to 5,0.2 to 5,< 0.02,CN(C)S(=O)(=O)c1cccc2c(-c3nc(NC4CCCNC4)ncc3C(F)(F)F)c[nH]c12 (stereo not shown) [Compound 371],< 0.1
0.2 to 5,0.2 to 5,0.2 to 5,< 0.02,CC(=O)c1ccc2c(-c3nc(N[C@H]4CCCNC4)ncc3C(F)(F)F)c[nH]c2c1 [Compound 359],< 0.1
≥ 5,≥ 5,0.2 to 5,0.02 to 0.2,FC(F)(F)c1cnc(NC2CCCNC2)nc1-c1c[nH]c2cc(-c3ccc4c(c3)OCCO4)ccc12 (stereo not shown) [Compound 342],1 to 5
0.2 to 5,0.2 to 5,0.2 to 5,0.02 to 0.2,O=C(c1cccc(-c2ccc3c(-c4nc(NC5CCCNC5)ncc4C(F)(F)F)c[nH]c3c2)c1)N1CCCC1 (stereo not shown) [Compound 340],1 to 5
0.2 to 5,0.2 to 5,0.2 to 5,0.02 to 0.2,O=C1CCc2ccc(-c3ccc4c(-c5nc(NC6CCCNC6)ncc5C(F)(F)F)c[nH]c4c3)cc2N1 (stereo not shown) [Compound 334],0.1 to 1
≥ 5,≥ 5,≥ 5,0.2 to 5,FC(F)(F)c1cnc(N[C@H]2CCCNC2)nc1-c1c[nH]c2cc(-c3cccc(Oc4ccccc4)c3)ccc12 [Compound 341],1 to 5
≥ 5,0.2 to 5,0.2 to 5,0.02 to 0.2,CC1(C)CNC[C@@H](Nc2ncc(C(F)(F)F)c(-c3c[nH]c4cc(S(C)(=O)=O)ccc34)n2)C1 [Compound 376],0.1 to 1
0.2 to 5,0.2 to 5,0.2 to 5,0.02 to 0.2,FC(F)(F)c1cnc(N[C@H]2CCCNC2)nc1-c1c[nH]c2cc(-c3ccc4ncsc4c3)ccc12 [Compound 343],0.1 to 1
0.2 to 5,0.2 to 5,0.2 to 5,< 0.02,CC1(C)CNCC(Nc2ncc(Cl)c(-c3c[nH]c4c(S(C)(=O)=O)c(C#N)ccc34)n2)C1 (stereo not shown) [Compound 382],< 0.1
≥ 5,≥ 5,≥ 5,0.02 to 0.2,CCc1cnc(N[C@H]2CCCNC2)nc1-c1c[nH]c2c(F)c(C#N)ccc12 [Compound 360],1 to 5
0.2 to 5,0.2 to 5,0.2 to 5,< 0.02,FC(F)(F)c1cnc(NC2CCCNC2)nc1-c1c[nH]c2cc(-c3cnccn3)ccc12 (stereo not shown) [Compound 328],< 0.1
≥ 5,≥ 5,≥ 5,0.02 to 0.2,N#Cc1ccc2c(-c3nc(N[C@H]4CCC5(CCC5)NC4)ncc3C(F)(F)F)c[nH]c2c1 [Compound 378],1 to 5
0.2 to 5,0.2 to 5,0.02 to 0.2,< 0.02,FC(F)Sc1ccc2c(-c3nc(NC4CCCNC4)ncc3C(F)(F)F)c[nH]c2c1 (stereo not shown) [Compound 374],< 0.1
≥ 5,≥ 5,0.2 to 5,0.02 to 0.2,CP(C)(=O)c1ccc2c(-c3nc(NC4CCCNC4)ncc3C(F)(F)F)c[nH]c2c1 (stereo not shown) [Compound 354],1 to 5
,,0.2 to 5,0.02 to 0.2,FC(F)(F)c1cnc(N[C@H]2CCCNC2)nc1-c1c[nH]c2cc(-c3ccc4ccncc4c3)ccc12 [Compound 325],0.1 to 1
,,0.2 to 5,0.02 to 0.2,Cn1ncc2ccc(-c3ccc4c(-c5nc(NC6CCCNC6)ncc5C(F)(F)F)c[nH]c4c3)cc21 (stereo not shown) [Compound 337],0.1 to 1
,,0.2 to 5,0.02 to 0.2,CCOc1ccccc1-c1ccc2c(-c3nc(NC4CCCNC4)ncc3C(F)(F)F)c[nH]c2c1 (stereo not shown) [Compound 327],0.1 to 1
,,0.2 to 5,0.02 to 0.2,NS(=O)(=O)c1cccc(-c2ccc3c(-c4nc(NC5CCCNC5)ncc4C(F)(F)F)c[nH]c3c2)c1 (stereo not shown) [Compound 326],0.1 to 1
,,0.2 to 5,< 0.02,Nc1ncc2cccc(-c3ccc4c(-c5nc(NC6CCCNC6)ncc5C(F)(F)F)c[nH]c4c3)c2n1 (stereo not shown) [Compound 322],0.1 to 1
,,0.2 to 5,0.02 to 0.2,NS(=O)(=O)c1ccc(-c2ccc3c(-c4nc(N[C@H]5CCCNC5)ncc4C(F)(F)F)c[nH]c3c2)cc1 [Compound 331],0.1 to 1
,,0.2 to 5,0.02 to 0.2,OCCc1cccc(-c2ccc3c(-c4nc(NC5CCCNC5)ncc4C(F)(F)F)c[nH]c3c2)c1 (stereo not shown) [Compound 324],0.1 to 1
